Assay results from the NIST ThermoML archive (doi:10.1007/s10765-011-0948-4).
Where “and” joins values, the source holds several entries; their conditions need not be identical. Equal values may be shown once. Numbers after ± are expanded uncertainties.

What was measured:
[1] = molar heat capacity at constant volume; conditions: High-temperature High-pressure adiabatci calorimeter
[2] = for thermal pressure coefficient: barogram technique

CCOCC [diethyl ether]
molar heat capacity at constant volume ([1]; 416.1 K, Liquid): 156.77 ± 4.7 J/K/mol
molar heat capacity at constant volume ([1]; 425.19 K, Liquid): 159.36 ± 4.8 J/K/mol
molar heat capacity at constant volume ([1]; 437.14 K, Liquid): 163.81 ± 4.9 J/K/mol
molar heat capacity at constant volume ([1]; 450.6 K, Liquid): 170.26 ± 5.1 J/K/mol
molar heat capacity at constant volume ([1]; 450.77 K, Liquid): 171.96 ± 5.2 J/K/mol
molar heat capacity at constant volume ([1]; 459.61 K, Liquid): 178.63 ± 5.3 J/K/mol
molar heat capacity at constant volume ([1]; 464.79 K, Liquid): 190.49 ± 5.7 J/K/mol
molar heat capacity at constant volume ([1]; 466.12 K, Gas): 190.12 ± 5.7 J/K/mol
molar heat capacity at constant volume ([1]; 466.47 K, Liquid): 203.83 ± 6.2 J/K/mol
molar heat capacity at constant volume ([1]; 466.66 K, Gas): 208.5 ± 6.3 J/K/mol
molar heat capacity at constant volume ([1]; 466.75 K, Liquid): 210.65 ± 6.3 J/K/mol
molar heat capacity at constant volume ([1]; 466.8 K, Liquid): 218.66 ± 6.6 J/K/mol
molar heat capacity at constant volume ([1]; 466.81 K, Liquid): 233.48 ± 7.1 J/K/mol and 245.64 ± 7.6 J/K/mol
molar heat capacity at constant volume ([1]; 466.82 K, Gas): 234.97 ± 7.4 J/K/mol
molar heat capacity at constant volume ([1]; 466.83 K, Gas): 248.6 ± 8.2 J/K/mol
molar heat capacity at constant volume ([1]; 466.85 K, Gas): 264.24 ± 9.1 J/K/mol
vapor or sublimation pressure ([2]; 416.1 K, Liquid): 1599 ± 48 kPa
mass density ([2]; 416.1 K, Liquid, Constant volume piezo-calorimeter): 534.6 ± 0.3 kg/m3
thermal pressure coefficient ([2]; 416.1 K, Liquid): 272 ± 4.1 kPa/K
vapor or sublimation pressure ([2]; 425.19 K, Liquid): 1906 ± 57 kPa
mass density ([2]; 425.19 K, Liquid, Constant volume piezo-calorimeter): 517.3 ± 0.3 kg/m3
thermal pressure coefficient ([2]; 425.19 K, Liquid): 238 ± 3.6 kPa/K
vapor or sublimation pressure ([2]; 437.14 K, Liquid): 2280 ± 68 kPa
mass density ([2]; 437.14 K, Liquid, Constant volume piezo-calorimeter): 485.2 ± 0.3 kg/m3
thermal pressure coefficient ([2]; 437.14 K, Liquid): 198 ± 3 kPa/K
vapor or sublimation pressure ([2]; 450.6 K, Liquid): 2931 ± 88 kPa
mass density ([2]; 450.6 K, Liquid, Constant volume piezo-calorimeter): 441.5 ± 0.2 kg/m3
thermal pressure coefficient ([2]; 450.6 K, Liquid): 148 ± 2.2 kPa/K
vapor or sublimation pressure ([2]; 450.77 K, Liquid): 2933 ± 88 kPa
mass density ([2]; 450.77 K, Liquid, Constant volume piezo-calorimeter): 440.8 ± 0.2 kg/m3
thermal pressure coefficient ([2]; 450.77 K, Liquid): 148 ± 2.2 kPa/K
vapor or sublimation pressure ([2]; 459.61 K, Liquid): 3315 ± 99 kPa
mass density ([2]; 459.61 K, Liquid, Constant volume piezo-calorimeter): 394.8 ± 0.2 kg/m3
thermal pressure coefficient ([2]; 459.61 K, Liquid): 106 ± 1.6 kPa/K
vapor or sublimation pressure ([2]; 464.79 K, Liquid): 3580 ± 110 kPa
mass density ([2]; 464.79 K, Liquid, Constant volume piezo-calorimeter): 348.2 ± 0.3 kg/m3
thermal pressure coefficient ([2]; 464.79 K, Liquid): 81.8 ± 1.2 kPa/K
thermal pressure coefficient ([2]; 466.12 K, Gas): 52.3 ± 0.8 kPa/K
mass density ([2]; 466.12 K, Gas, constant volume piezo-calorimeter): 212.6 ± 0.6 kg/m3
vapor or sublimation pressure ([2]; 466.47 K, Liquid): 3612 ± 110 kPa
mass density ([2]; 466.47 K, Liquid, Constant volume piezo-calorimeter): 310.8 ± 0.8 kg/m3
thermal pressure coefficient ([2]; 466.47 K, Liquid): 68 ± 1 kPa/K
thermal pressure coefficient ([2]; 466.66 K, Gas): 54.3 ± 0.8 kPa/K
mass density ([2]; 466.66 K, Gas, constant volume piezo-calorimeter): 233.7 ± 0.8 kg/m3
vapor or sublimation pressure ([2]; 466.75 K, Liquid): 3601 ± 110 kPa
mass density ([2]; 466.75 K, Liquid, Constant volume piezo-calorimeter): 296.7 ± 0.8 kg/m3
thermal pressure coefficient ([2]; 466.75 K, Liquid): 64.5 ± 1 kPa/K
vapor or sublimation pressure ([2]; 466.8 K, Liquid): 3583 ± 110 kPa
mass density ([2]; 466.8 K, Liquid, Constant volume piezo-calorimeter): 288.3 ± 1.1 kg/m3
thermal pressure coefficient ([2]; 466.8 K, Liquid): 61 ± 1 kPa/K
vapor or sublimation pressure ([2]; 466.81 K, Liquid): 3608 ± 110 kPa and 3576 ± 110 kPa
mass density ([2]; 466.81 K, Liquid, Constant volume piezo-calorimeter): 278.7 ± 1.5 kg/m3 and 275.7 ± 1.6 kg/m3
thermal pressure coefficient ([2]; 466.81 K, Liquid): 59.7 kPa/K and 59.2 kPa/K
thermal pressure coefficient ([2]; 466.82 K, Gas): 55.9 ± 0.9 kPa/K
mass density ([2]; 466.82 K, Gas, constant volume piezo-calorimeter): 255 ± 1.9 kg/m3
thermal pressure coefficient ([2]; 466.83 K, Gas): 56.1 ± 0.9 kPa/K
mass density ([2]; 466.83 K, Gas, constant volume piezo-calorimeter): 260.7 ± 2.3 kg/m3
thermal pressure coefficient ([2]; 466.85 K, Gas): 55.9 ± 0.9 kPa/K
mass density ([2]; 466.85 K, Gas, constant volume piezo-calorimeter): 261.2 ± 2.2 kg/m3
Critical density ([2]; Liquid, quasi-satatic thermogram technique): 265.1 ± 2 kg/m3
Critical temperature ([2]; Liquid, quasi-static thermogram technique): 466.85 ± 0.2 K
